Assay results: patent US9834558B2, “Substituted bridged urea analogs as sirtuin modulators” (GLAXOSMITHKLINE LLC, priority 2013, dated 2017)
Structures can show the parent of a compound that is named as a salt. Where two headings read alike, the source gives them in different places.

Biological target: T1, SIRT1 (Homo sapiens, UniProt Q96EB6)
T1 sequence (Q96EB6 1-747): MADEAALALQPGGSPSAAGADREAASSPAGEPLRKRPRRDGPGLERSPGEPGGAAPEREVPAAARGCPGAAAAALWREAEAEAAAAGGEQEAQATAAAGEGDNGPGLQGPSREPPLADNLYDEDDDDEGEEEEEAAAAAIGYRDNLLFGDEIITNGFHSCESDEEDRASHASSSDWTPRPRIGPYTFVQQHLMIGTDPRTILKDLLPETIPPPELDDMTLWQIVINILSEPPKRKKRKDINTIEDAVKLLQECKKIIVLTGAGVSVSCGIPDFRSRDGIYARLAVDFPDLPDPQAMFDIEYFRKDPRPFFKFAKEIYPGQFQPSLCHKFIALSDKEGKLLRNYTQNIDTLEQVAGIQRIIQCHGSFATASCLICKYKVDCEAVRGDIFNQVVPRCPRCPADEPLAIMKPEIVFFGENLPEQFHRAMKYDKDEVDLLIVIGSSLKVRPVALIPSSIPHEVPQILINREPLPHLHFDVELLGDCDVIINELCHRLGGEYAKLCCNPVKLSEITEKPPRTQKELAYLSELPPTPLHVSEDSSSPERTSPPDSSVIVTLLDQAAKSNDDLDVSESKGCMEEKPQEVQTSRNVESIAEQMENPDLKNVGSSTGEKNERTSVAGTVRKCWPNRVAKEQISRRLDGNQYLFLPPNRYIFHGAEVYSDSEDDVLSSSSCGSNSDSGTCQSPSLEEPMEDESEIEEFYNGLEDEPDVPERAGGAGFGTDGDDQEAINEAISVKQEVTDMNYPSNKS
Experiment: Trp mass spectrometry assay of SIRT1 activation
Format: biochemical
Conditions: for TRP Activity (EC1.5): EC1.5 = concentration that results in 150% activation of SIRT1
Procedure, shortened: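 Activation read-out: mass-spec measurement of O-acetyl-ADP-ribose or deacetylated Trp peptide versus compound-free controls, giving EC1.5 and Percent Maximum Activation. Reactions ran 25 min at 25 °C, pH 7.5, with 120 μM βNAD+, 0.5 μM acetylated p53-derived peptide and 10 nM His-tagged SIRT1.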

[1] = Trp mass spectrometry assay, EC1.5 = concentration of test compound that results in 150% activation of SIRT1
[2] = Trp mass spectrometry assay, concentration of test compound giving 150% activation of SIRT1
[3] = Trp peptide assay, maximum activity relative to control (100%), read-out: TRP MAX RESP (percent maximum fold activation)
[4] = concentration giving 150% activation of SIRT1, Trp peptide substrate

Row | Compound | TRP Activity (EC1.5) (Trp peptide assay) | Emax [3] [%] | also measured
1 | COc1cc(NC(=O)N2c3nc(-c4cccc(Cl)c4)ccc3N3CCC2CC3)ncn1 [Example 522] |  |  | Tryp AVG EC1.5 (μM) [1]: B (B (EC1.5 1-25 μM))
2 | N#Cc1cncc(-c2ccc3c(n2)N(C(=O)Nc2ccccn2)[C@H]2CCN3C2)c1 [Example 373] |  |  | Tryp AVG EC1.5 (μM) [2]: A (A (EC1.5<1 μM))
3 | CCc1cncc(NC(=O)N2c3nc(-c4ccnc(C)c4)ccc3N3CC[C@H]2C3)n1 [(9S)-N-(6-ethylpyrazin-2-yl)-5-(2-methylpyridin-4-yl)-1,6,8-triazatricyclo[7.2.1.0 {2,7}]dodeca-2(7),3,5-triene-8-carboxamide] | A (A (EC1.5<1 μM)) | > 150 | 
4 | O=C(NC1CCOC1)c1ccc2c(n1)N(C(=O)Nc1ccccn1)[C@H]1CCN2C1 (stereo partly drawn) [(9S)-5-N-(oxolan-3-yl)-8-N-(pyridin-2-yl)-1,6,8-triazatricyclo[7.2.1.0 {2,7}]dodeca-2(7),3,5-triene-5,8-dicarboxamide] | B (B (EC1.5 1-25 μM)) | > 150 | 
5 | Cc1cc(-c2ccc3c(n2)N(C(=O)Nc2cncc(OC(C)C)n2)[C@H]2CCN3C2)ccn1 [(9S)-5-(2-methylpyridin-4-yl)-N-[6-(propan-2-yloxy)pyrazin-2-yl]-1,6,8-triazatricyclo[7.2.1.0 {2,7}]dodeca-2(7),3,5-triene-8-carboxamide] | A (A (EC1.5<1 μM)) | > 150 | 
6 | N#Cc1ccc(-c2ccc3c(n2)N(C(=O)Nc2cccnc2)[C@H]2CCN3C2)cn1 [(9S)-5-(6-cyanopyridin-3-yl)-N-(pyridin-3-yl)-1,6,8-triazatricyclo[7.2.1.0^2,7]dodeca-2,4,6-triene-8-carboxamide] | B (B (EC1.5 1-25 μM)) | > 150 | 
7 | Cc1cccnc1NC(=O)N1c2nc(-c3cccc(Cl)c3)ccc2N2CC[C@H]1C2 [Example 106] |  |  | Tryp AVG EC1.5 (μM) (Trp peptide substrate, concentration giving 150% activation of SIRT1): C (C (EC1.5>25 μM))
8 | Cc1cc(-c2ccc3c(n2)N(C(=O)Nc2cnc(C4CC4)cn2)[C@H]2CCN3C2)ccn1 [(9S)-N-(5-cyclopropylpyrazin-2-yl)-5-(2-methylpyridin-4-yl)-1,6,8-triazatricyclo[7.2.1.0 {2,7}]dodeca-2(7),3,5-triene-8-carboxamide] | A (A (EC1.5<1 μM)) | > 150 | 
9 | O=C(Nc1ccccn1)N1c2nc(-c3cccc(C(F)(F)F)c3)ccc2N2C[C@@H](O)[C@H]1C2 [Example 601] |  |  | Tryp AVG EC1.5 (μM) [1]: A (A (EC1.5<1 μM))
10 | Cc1cc(-c2ccc3c(n2)N(C(=O)Nc2nccc4[nH]cnc24)[C@H]2CCN3C2)ccn1 [(9S)-N-{1H-imidazo[4,5-c]pyridin-4-yl}-5-(2-methylpyridin-4-yl)-1,6,8-triazatricyclo[7.2.1.0 {2,7}]dodeca-2,4,6-triene-8-carboxamide] | B (B (EC1.5 1-25 μM)) | > 150 | 
11 | C#CNc1nccc(NC(=O)N2c3nc(-c4cccc(C5(C(F)(F)F)N=N5)c4)ccc3N3CC[C@H]2C3)n1 [Example 809] |  |  | Tryp AVG EC1.5 (μM) [4]: B (B (EC1.5 1-25 μM)); Emax (percent maximum fold activation of SIRT1, Trp peptide substrate, read-out: Tryp % Fold Act): > 150%
12 | Cc1cc(-c2ccc3c(n2)N(C(=O)NCCc2cccnc2)[C@H]2CCN3C2)ccn1 [(9S)-5-(2-methylpyridin-4-yl)-N-[2-(pyridin-3-yl)ethyl]-1,6,8-triazatricyclo[7.2.1.0 {2,7}]dodeca-2(7),3,5-triene-8-carboxamide hydrochloride] | C (C (EC1.5>25 μM)) | < 150 | 
13 | O=C(Nc1cccnc1)N1c2nc(-c3cccc(Cl)c3)ccc2N2C[C@@H](O)[C@H]1C2 [Example 681] |  |  | Tryp AVG EC1.5 (μM) [4]: B (B (EC1.5 1-25 μM))
14 | Cc1nc(NC(=O)N2c3nc(-c4cncc(Cl)c4)ccc3N3CCC2CC3)sc1C [Example 554] |  |  | Tryp AVG EC1.5 (μM) [1]: B (B (EC1.5 1-25 μM))
15 | O=C(Nc1ccnc(Br)c1)N1c2nc(-c3cccc(C(F)(F)F)c3)ccc2N2CC[C@H]1C2 [Example 541] |  |  | Tryp AVG EC1.5 (μM) [1]: A (A (EC1.5<1 μM))
16 | Cc1cc(-c2ccc3c(n2)N(C(=O)Nc2cnc(OC[C@@H](O)CO)cn2)[C@H]2CCN3C2)ccn1 [Example 561] |  |  | Tryp AVG EC1.5 (μM) [1]: B (B (EC1.5 1-25 μM))
17 | COc1cc(-c2cccc(Cl)c2)nc2c1N1CC[C@@H](C1)N2C(=O)Nc1cnccn1 [Example 396] |  |  | Tryp AVG EC1.5 (μM) [2]: A (A (EC1.5<1 μM))
18 | COc1ncc(-c2ccc3c(n2)N(C(=O)Nc2cnccn2)[C@H]2CCN3C2)c(OC)n1 [Example 398] |  |  | Tryp AVG EC1.5 (μM) [2]: B (B (EC1.5 1-25 μM))

Row | Compound | TRP Activity (EC1.5) (Trp peptide assay) | Emax [3] [%] | also measured
19 | CS(=O)(=O)c1cccc(-c2ccc3c(n2)N(C(=O)Nc2cccc(-c4cnco4)c2)[C@H]2CCN3C2)c1 [Example 710] |  |  | Tryp AVG EC1.5 (μM) [4]: A (A (EC1.5<1 μM))
20 | C#CCOc1cccc(NC(=O)N2c3nc(-c4ccc(C5(C(F)(F)F)N=N5)cc4)ccc3N3CC[C@H]2C3)c1 [Example 802] |  |  | Tryp AVG EC1.5 (μM) [4]: B (B (EC1.5 1-25 μM))
21 | COc1cc(NC(=O)N2c3nc(-c4cccnc4)ccc3N3CCC[C@H]2C3)ncn1 [Example 442] |  |  | Tryp AVG EC1.5 (μM) [1]: B (B (EC1.5 1-25 μM))
22 | CC(C)(C)OC(=O)NCCNC(=N)c1ccc(NC(=O)N2c3nc(-c4cccc(C(F)(F)F)c4)ccc3N3CCC[C@H]2C3)cc1 [Example 788] |  |  | Tryp AVG EC1.5 (μM) [4]: A (A (EC1.5<1 μM))
23 | Cc1ccnc(NC(=O)N2c3nc(-c4ccnc(C)c4)ccc3N3CC[C@H]2C3)c1 [(9S)-N-(4-methylpyridin-2-yl)-5-(2-methylpyridin-4-yl)-1,6,8-triazatricyclo[7.2.1.0^2,7]dodeca-2,4,6-triene-8-carboxamide] | B (B (EC1.5 1-25 μM)) | > 150 | 
24 | C[C@@H]1CCN(C)c2ccc(-c3cccc(CC(O)CO)c3)nc2N1C(=O)Nc1ccc(F)cn1 (stereo partly drawn) [Example 356] |  |  | Tryp AVG EC1.5 (μM) [2]: A (A (EC1.5<1 μM)); Emax (Trp mass spectrometry assay, percent maximum fold activation of SIRT1, read-out: Tryp % Fold Act): > 150%
25 | O=C(Nc1cnccn1)N1c2nc(-c3cnc(C4CC4)c(C(F)(F)F)c3)ccc2N2CC[C@H]1C2 [(9S)-5-[6-cyclopropyl-5-(trifluoromethyl)pyridin-3-yl]-N-(pyrazin-2-yl)-1,6,8-triazatricyclo[7.2.1.0 {2,7}]dodeca-2,4,6-triene-8-carboxamide] | A (A (EC1.5<1 μM)) | > 150 | 
26 | Cc1cc(-c2ccc3c(n2)N(C(=O)N2CCCCC2)[C@H]2CCN3C2)ccn1 [(9S)-5-(2-methylpyridin-4-yl)-8-[(piperidin-1-yl)carbonyl]-1,6,8-triazatricyclo[7.2.1.0 {2,7}]dodeca-2,4,6-triene] | C (C (EC1.5>25 μM)) | < 150 | 
27 | O=C(O)c1cc(-c2ccc3c(n2)N(C(=O)Nc2cnccn2)[C@H]2CCN3C2)ccn1 [4-[(9S)-8-[(pyrazin-2-yl)carbamoyl]-1,6,8-triazatricyclo[7.2.1.0 {2,7}]dodeca-2(7),3,5-trien-5-yl]pyridine-2-carboxylic acid] | C (C (EC1.5>25 μM)) | < 150 | 
28 | O=C(Nc1cncc(F)c1)N1c2nc(-c3ccnc(N4CC[C@H](F)C4)c3)ccc2N2CC[C@H]1C2 [Example 475] |  |  | Tryp AVG EC1.5 (μM) [1]: A (A (EC1.5<1 μM))
29 | COc1cc(-c2ccc3c(n2)N(C(=O)Nc2cnccn2)[C@H]2CCN3C2)cc(C)n1 [(9S)-5-(2-methoxy-6-methylpyridin-4-yl)-N-(pyrazin-2-yl)-1,6,8-triazatricyclo[7.2.1.0 {2,7}]dodeca-2(7),3,5-triene-8-carboxamide] | A (A (EC1.5<1 μM)) | > 150 | 
30 | O=C(NCC1CC1)c1ccc2c(n1)N(C(=O)Nc1ccccn1)[C@H]1CCN2C1 [(9S)-5-N-(cyclopropylmethyl)-8-N-(pyridin-2-yl)-1,6,8-triazatricyclo[7.2.1.0 {2,7}]dodeca-2(7),3,5-triene-5,8-dicarboxamide] | A (A (EC1.5<1 μM)) | > 150 | 
31 | O=C(Nc1ncc(-c2ccccc2)s1)N1c2nc(-c3cccc(C(F)(F)F)c3)ccc2N2CC[C@H]1C2 [Example 734] |  |  | Tryp AVG EC1.5 (μM) [4]: B (B (EC1.5 1-25 μM))
32 | O=C(Nc1ccccn1)N1c2nc(-c3ccnc(N4CCC(C(F)(F)F)C4)c3)ccc2N2CC[C@H]1C2 (stereo partly drawn) [Example 367] |  |  | Tryp AVG EC1.5 (μM) [2]: A (A (EC1.5<1 μM))
33 | CC(C)(C)OC(=O)NCc1ccc(NC(=O)N2c3nc(-c4cccc(C(F)(F)F)c4)ccc3N3CC[C@H]2C3)cc1 [Example 793] |  |  | Tryp AVG EC1.5 (μM) [4]: B (B (EC1.5 1-25 μM))
34 | O=C(Nc1ccncn1)N1c2nc(N3CCCNCC3)ccc2N2CCC[C@H]1C2 [Example 420] |  |  | Tryp AVG EC1.5 (μM) [1]: C (C (EC1.5>25 μM))
35 | O=C(Nc1cccc(-c2ccccn2)c1)N1c2nc(-c3cccc(C(F)(F)F)c3)ccc2N2CC[C@H]1C2 [Example 667] |  |  | Tryp AVG EC1.5 (μM) [4]: A (A (EC1.5<1 μM))
36 | CCC(=O)c1cccc(NC(=O)N2c3nc(-c4cccc(C(F)(F)F)c4)ccc3N3CC[C@H]2C3)c1 [Example 714] |  |  | Tryp AVG EC1.5 (μM) [4]: A (A (EC1.5<1 μM))
